Laboratory results reported in ChEMBL document CHEMBL4376865, “Discovery and Characterization of 1H-1,2,3-Triazole Derivatives as Novel Prostanoid EP4 Receptor Antagonists for Cancer Immunotherapy” (J Med Chem, 2020).

Columns and labels:
[1] = Half life in BALB/c mouse at 1 mg/kg, iv measured upto 24 hrs by LC-MS/MS analysis; conditions: in vivo
[2] = target: T1, Prostaglandin E2 receptor EP3 subtype (Homo sapiens, UniProt P43115)
T1 sequence (P43115 whole entry): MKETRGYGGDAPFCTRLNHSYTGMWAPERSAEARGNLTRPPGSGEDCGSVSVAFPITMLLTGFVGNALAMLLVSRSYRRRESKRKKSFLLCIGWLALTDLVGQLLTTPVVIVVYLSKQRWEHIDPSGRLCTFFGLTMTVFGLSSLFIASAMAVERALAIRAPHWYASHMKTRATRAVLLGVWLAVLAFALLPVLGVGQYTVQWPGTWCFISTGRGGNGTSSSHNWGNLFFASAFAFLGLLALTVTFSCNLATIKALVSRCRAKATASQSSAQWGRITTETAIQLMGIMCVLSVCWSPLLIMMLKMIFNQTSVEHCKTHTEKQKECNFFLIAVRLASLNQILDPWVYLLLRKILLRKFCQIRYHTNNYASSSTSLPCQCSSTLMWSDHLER
Description: Antagonist activity at human EP3 expressed in CHO cells coexpressing G16-alpha assessed as intracellular calcium flux preincubated for 15 mins followed by addition of PGE2 by calcium flux assay

in vivo [3] = conditions: BALB/c, mouse, iv, 1 mg/kg
in vitro [4] = conditions: CD1, mouse, liver microsomes
CYP2D6 = CYP2D6 (Homo sapiens, UniProt P10635); experiment: Inhibition of CYP2D6 in human liver microsomes at 20 uM using dextromethorphan as substrate incubated for 60 mins by HPLC analysis relative to control; type: ADME; conditions: probe dextromethorphan
CYP2D6, sequence (P10635 whole entry): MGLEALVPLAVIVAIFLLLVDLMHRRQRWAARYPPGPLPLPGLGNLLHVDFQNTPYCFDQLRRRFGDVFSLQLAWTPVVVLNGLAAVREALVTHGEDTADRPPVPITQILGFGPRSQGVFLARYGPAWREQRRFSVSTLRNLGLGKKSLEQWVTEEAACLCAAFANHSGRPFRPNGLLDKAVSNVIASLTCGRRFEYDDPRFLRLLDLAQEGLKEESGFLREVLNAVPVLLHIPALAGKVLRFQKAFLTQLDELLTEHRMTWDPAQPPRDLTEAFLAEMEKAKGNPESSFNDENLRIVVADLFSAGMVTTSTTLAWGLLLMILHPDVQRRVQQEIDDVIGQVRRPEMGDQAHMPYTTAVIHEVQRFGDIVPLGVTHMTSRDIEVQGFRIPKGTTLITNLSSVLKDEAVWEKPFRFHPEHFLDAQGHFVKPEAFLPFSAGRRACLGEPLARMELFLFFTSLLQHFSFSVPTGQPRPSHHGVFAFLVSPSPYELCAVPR

in vitro [5] = conditions: human, liver microsomes
[6] = target: Prostaglandin E2 receptor EP4 subtype (Mus musculus, UniProt P32240); experiment: Antagonist activity at mouse EP4 expressed in CHO cells coexpressing G16-alpha assessed as intracellular calcium flux preincubated for 15 mins followed by addition of PGE2 by calcium flux assay; type: functional, cell-based
Prostaglandin E2 receptor EP4 subtype (Mus musculus, UniProt P32240), sequence (P32240 whole entry): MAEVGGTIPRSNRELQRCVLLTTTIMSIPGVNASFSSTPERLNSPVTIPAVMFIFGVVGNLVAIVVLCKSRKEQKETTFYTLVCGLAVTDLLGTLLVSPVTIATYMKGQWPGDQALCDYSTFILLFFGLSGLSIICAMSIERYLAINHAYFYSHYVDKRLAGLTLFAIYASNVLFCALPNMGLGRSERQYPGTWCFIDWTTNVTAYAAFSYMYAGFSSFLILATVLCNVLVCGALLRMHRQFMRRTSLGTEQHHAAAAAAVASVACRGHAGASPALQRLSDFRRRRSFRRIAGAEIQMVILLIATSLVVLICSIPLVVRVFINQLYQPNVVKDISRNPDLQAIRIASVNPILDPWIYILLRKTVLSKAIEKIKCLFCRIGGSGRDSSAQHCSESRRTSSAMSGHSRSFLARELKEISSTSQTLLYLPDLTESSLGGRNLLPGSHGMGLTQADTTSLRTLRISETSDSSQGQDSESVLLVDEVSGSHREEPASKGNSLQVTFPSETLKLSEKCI

[7] = Apparent volume of distribution in BALB/c mouse at 1 mg/kg, iv measured upto 24 hrs by LC-MS/MS analysis; conditions: in vivo
[8] = Half life in BALB/c mouse at 5 mg/kg, po measured upto 24 hrs by LC-MS/MS analysis; conditions: in vivo
in vitro [9] = conditions: human, liver microsomes; remark: listed apart in the source
CYP1A2 = target: T2, CYP1A2 (Homo sapiens, UniProt P05177); experiment: Inhibition of CYP1A2 in human liver microsomes at 20 uM using phenacetin as substrate incubated for 30 mins by HPLC analysis relative to control; type: ADME; conditions: probe phenacetin
T2 sequence (P05177 whole entry): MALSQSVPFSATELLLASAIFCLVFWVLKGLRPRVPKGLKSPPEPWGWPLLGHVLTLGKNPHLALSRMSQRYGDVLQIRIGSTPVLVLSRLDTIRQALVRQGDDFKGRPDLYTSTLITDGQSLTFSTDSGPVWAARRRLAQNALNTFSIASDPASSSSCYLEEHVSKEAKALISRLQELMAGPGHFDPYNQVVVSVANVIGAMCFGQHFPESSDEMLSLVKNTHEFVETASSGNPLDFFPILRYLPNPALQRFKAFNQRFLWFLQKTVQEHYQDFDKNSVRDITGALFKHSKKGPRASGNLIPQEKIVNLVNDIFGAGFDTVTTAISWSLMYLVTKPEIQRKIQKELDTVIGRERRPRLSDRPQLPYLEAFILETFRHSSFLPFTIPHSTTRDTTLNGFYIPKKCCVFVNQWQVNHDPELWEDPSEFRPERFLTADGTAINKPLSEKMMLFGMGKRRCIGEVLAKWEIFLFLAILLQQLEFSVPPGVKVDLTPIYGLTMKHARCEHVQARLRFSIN

[10] = Metabolic stability in CD1 mouse liver microsomes assessed as compound remaining at 10 uM incubated for 1 hr
CYP2E1 = CYP2E1 (Homo sapiens, UniProt P05181); experiment: Inhibition of CYP2E1 in human liver microsomes at 20 uM using chlorzoxazone as substrate incubated for 60 mins by HPLC analysis relative to control; type: ADME; conditions: probe chlorzoxazone
CYP2E1, sequence (P05181 whole entry): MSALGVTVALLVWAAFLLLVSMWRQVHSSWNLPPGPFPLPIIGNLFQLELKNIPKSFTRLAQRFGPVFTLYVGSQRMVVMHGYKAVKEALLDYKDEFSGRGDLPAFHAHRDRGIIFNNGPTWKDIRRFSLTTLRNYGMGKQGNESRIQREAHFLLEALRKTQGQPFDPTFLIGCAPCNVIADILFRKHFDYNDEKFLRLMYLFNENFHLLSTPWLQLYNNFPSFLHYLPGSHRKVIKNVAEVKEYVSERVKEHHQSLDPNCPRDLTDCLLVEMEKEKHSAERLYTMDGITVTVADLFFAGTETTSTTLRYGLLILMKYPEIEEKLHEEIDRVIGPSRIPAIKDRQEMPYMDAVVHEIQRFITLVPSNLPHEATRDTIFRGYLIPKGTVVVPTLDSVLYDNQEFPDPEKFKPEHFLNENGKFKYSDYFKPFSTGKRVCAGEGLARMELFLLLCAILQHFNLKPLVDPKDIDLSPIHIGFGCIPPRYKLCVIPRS

in vivo [11] = conditions: BALB/c, mouse, po, 5 mg/kg
Description: AUC (0 to infinity) in BALB/c mouse at 5 mg/kg, po measured upto 24 hrs by LC-MS/MS analysis

CYP2C9 = CYP2C9 (Homo sapiens, UniProt P11712); experiment: Inhibition of CYP2C9 in human liver microsomes at 20 uM using tolbutamide as substrate incubated for 60 mins by HPLC analysis relative to control; type: ADME; conditions: probe tolbutamide
CYP2C9, sequence (P11712 whole entry): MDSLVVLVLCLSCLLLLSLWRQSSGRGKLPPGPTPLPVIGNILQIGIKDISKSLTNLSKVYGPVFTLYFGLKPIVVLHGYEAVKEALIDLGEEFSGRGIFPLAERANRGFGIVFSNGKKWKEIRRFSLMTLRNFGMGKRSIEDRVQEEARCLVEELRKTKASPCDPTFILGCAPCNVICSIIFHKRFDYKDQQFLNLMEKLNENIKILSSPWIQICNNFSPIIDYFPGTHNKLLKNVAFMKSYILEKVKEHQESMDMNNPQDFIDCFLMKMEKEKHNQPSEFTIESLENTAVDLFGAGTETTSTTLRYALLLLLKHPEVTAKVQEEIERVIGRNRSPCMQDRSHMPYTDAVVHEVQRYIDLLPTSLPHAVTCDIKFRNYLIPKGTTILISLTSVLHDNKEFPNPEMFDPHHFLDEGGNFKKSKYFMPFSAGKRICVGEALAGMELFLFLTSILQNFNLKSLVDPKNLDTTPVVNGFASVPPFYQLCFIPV

in vivo [12] = conditions: BALB/c, mouse, po, 5 mg/kg; remark: listed apart in the source
Description: Oral bioavailability in BALB/c mouse at 5 mg/kg measured upto 24 hrs by LC-MS/MS analysis

[13] = Volume of distribution at steady state in BALB/c mouse at 1 mg/kg, iv measured upto 24 hrs by LC-MS/MS analysis; conditions: in vivo
in vitro [14] = conditions: CD1, mouse, liver microsomes; remark: listed apart in the source
[15] = target: T3, Prostaglandin E2 receptor EP4 subtype (Homo sapiens, UniProt P35408); experiment: Inhibition of human EP4 transfected in human HEK293 cells co transfected with CRE-luciferase assessed as reduction in PGE2-induced luciferase expression incubated for 24 hrs by luciferase reporter gene Assay
T3 sequence (P35408 whole entry): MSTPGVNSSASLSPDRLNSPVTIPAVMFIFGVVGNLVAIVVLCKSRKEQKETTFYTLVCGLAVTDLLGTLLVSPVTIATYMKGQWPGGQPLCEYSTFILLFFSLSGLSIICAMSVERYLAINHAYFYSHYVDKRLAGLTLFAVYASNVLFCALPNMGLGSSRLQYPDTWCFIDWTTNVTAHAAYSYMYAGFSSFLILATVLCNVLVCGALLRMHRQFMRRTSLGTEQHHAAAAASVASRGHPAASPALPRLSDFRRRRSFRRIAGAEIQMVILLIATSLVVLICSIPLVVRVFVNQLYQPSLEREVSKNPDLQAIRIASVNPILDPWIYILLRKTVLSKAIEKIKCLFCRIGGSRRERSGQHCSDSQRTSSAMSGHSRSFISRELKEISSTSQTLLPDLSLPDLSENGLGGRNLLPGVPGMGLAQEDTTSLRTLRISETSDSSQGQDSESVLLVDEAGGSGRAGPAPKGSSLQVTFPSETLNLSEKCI

CT26 [16] = experiment: Antitumor activity against mouse CT26 cells xenografted in BALB/c mouse assessed as tumor growth inhibition at 50 mg/kg, po administerd daily and measured after two weeks; conditions: 336 h, read-out: TGI
[17] = Clearance in BALB/c mouse at 1 mg/kg, iv measured upto 24 hrs by LC-MS/MS analysis; conditions: in vivo
in vivo [18] = conditions: BALB/c, mouse, iv, 1 mg/kg; remark: listed apart in the source
CT26 [19] = experiment: Antitumor activity against mouse CT26 cells xenografted in BALB/c mouse assessed as tumor growth inhibition at 16 mg/kg, po administerd daily and measured after two weeks; conditions: 336 h, read-out: TGI
[20] = target: T3, Prostaglandin E2 receptor EP4 subtype
Description: Antagonist activity at human EP4 expressed in CHO cells coexpressing G16-alpha assessed as intracellular calcium flux preincubated for 15 mins followed by addition of PGE2 by calcium flux assay

CT26 [21] = experiment: Antitumor activity against mouse CT26 cells xenografted in BALB/c mouse assessed as tumor growth inhibition at 150 mg/kg, po administerd daily and measured after two weeks; conditions: 336 h, read-out: TGI
[22] = Metabolic stability in human liver microsomes assessed as compound remaining at 10 uM incubated for 1 hr

SMILES: C/C=C/c1nnn(Cc2ccc(C(F)(F)F)cc2)c1C(=O)N[C@@H](C)c1ccc(C(=O)O)cc1
- half-life at 24 h [1]: 4.1 h
- IC50 [2]: > 10000 nM
- Cmax at 24 h (in vivo [3]): 1200 ng/mL
- microsomal CLint at 1 h, 10 µM (in vitro [4]): < 9.6 µL/min/mg
- inhibition at 1 h, 20 µM (CYP2D6): 23%
- microsomal CLint at 1 h, 10 µM (in vitro [5]): < 9.6 µL/min/mg
- IC50 [6]: 16.2 nM
- Vd at 24 h [7]: 10.2 L/kg
- half-life at 24 h [8]: 4.7 h
- half-life at 1 h, 10 µM (in vitro [9]): > 2.42 h
- inhibition at 0.5 h, 20 µM (CYP1A2): 27%
- remaining at 1 h, 10 µM [10]: 82%
- inhibition at 1 h, 20 µM (CYP2E1): 66%
- AUC(0-inf) at 24 h (in vivo [11]): 1240 ng·h/mL
- inhibition at 1 h, 20 µM (CYP2C9): 33%
- bioavailability at 24 h (in vivo [12]): 48%
- Vd at 24 h [13]: 4.4 L/kg
- half-life at 1 h, 10 µM (in vitro [14]): > 2.42 h
- IC50 [15]: 5.2 nM
- inhibition in vivo at 50 mg/kg (CT26 [16]): 54.7%
- clearance at 24 h [17]: 28.3 mL/min/kg
- AUC(0-inf) at 24 h (in vivo [18]): 575 ng·h/mL
- inhibition in vivo at 16 mg/kg (CT26 [19]): 24.6%
- IC50 [20]: 6.1 nM
- inhibition in vivo at 150 mg/kg (CT26 [21]): 63.8%
- remaining at 1 h, 10 µM [22]: 100%
